The species entered for assay [1] is Homo sapiens. Description: Cleavage of DNA at 180 uM.
The species named for assay [2] is Homo sapiens. Description: Cleavage of DNA at 180 uM in presence of cysteine.
The species named for assay [3] is Homo sapiens. Kind of assay: Cleavage of DNA at 180 uM in anaerobic condition.
For assay [4], the species on record is Homo sapiens. Kind of assay: Cleavage of DNA at 360 uM.

Activity calls are given as the source filed them. The calls are words filed in the database; no cut-off is given here.

Regarding `[O-][S+](c1ccccc1)c1ccccc1`, the outcome in assay [1] was Active. For the same compound, the outcome in assay [2] and in assay [3] was inactive.
As for `C[S+]([O-])c1ccccc1` (centres undefined), the result in assay [4] was Active.

Source of the values: ChEMBL document CHEMBL1140537, “DNA cleavage by photolysis of aryl sulfoxides” (Bioorg Med Chem Lett, 2007).
